According to publication PMC11393453, “Phosphorylation of tau at a single residue inhibits binding to the E3 ubiquitin ligase, CHIP” (Nature Communications, 2024):
Where two headings read alike, the source gives them in different places.

Tests used:
[1] = test system: CHIP; details: cited from earlier work
Source text: Moreover, the appearance of pS416 and tauC3 are coincident in AD patient samples (see Fig. 5), supporting a putative role of these PTMs in tau proteostasis. Based on these collective findings and in concert with observations from the literature, we propose a model to explain the hierarchy of these tau PTMs (Fig. 6D). In this speculative model, FL tau can either be phosphorylated by MARK2 or CaMKII ...

[2] = target: CHIP; assay: CHIP-tau binding ELISA (tau proteoforms on immobilized CHIP)

p.tau: full length phosphorylated tau produced in Sf9 insect cells
fold better binding of CHIP than to unmodified FL tau [1]: 10 fold
Kd ([2]; Fig 1C,D, tau proteoform binding to immobilized CHIP (1 µM coated), 3 h RT, technical triplicate, ± SD): ~500 nM
Kd ([2]; Fig 1D, replicate 1): 433 nM
Kd ([2]; Fig 1D, replicate 2): 464 nM
Kd ([2]; Fig 1D, replicate 3): 471 nM
Kd ([2]; read-out: transformed Kd, Fig 1D, replicate 1): 433 nM
Kd ([2]; read-out: transformed Kd, Fig 1D, replicate 2): 464 nM
Kd ([2]; read-out: transformed Kd, Fig 1D, replicate 3): 471 nM
